Source: PubChem BioAssay (NCI)
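Exposure lasted 48 hours, with cells grown in 96-well plates and compounds tested at five concentrations. GI50: concentration for 50% inhibition of growth. At the TGI there is no net growth.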

How the values were obtained:
Assay in all cases: DTP human tumour cell line panel, 48 h
SR leukemia = tested on: SR leukemia
SN12C renal = tested on: SN12C renal
SK-MEL-5 melanoma = tested on: SK-MEL-5 melanoma
UACC-62 melanoma = tested on: UACC-62 melanoma
HOP-92 NSCLC = tested on: HOP-92 NSCLC
DU-145 prostate = tested on: DU-145 prostate
MDA-MB-231 breast = tested on: MDA-MB-231 breast
NCI-H226 lung = tested on: NCI-H226 lung
HOP-62 NSCLC = tested on: HOP-62 NSCLC
T-47D breast = tested on: T-47D breast
SF-295 CNS = tested on: SF-295 CNS
MCF7 breast = tested on: MCF7 breast
K-562 leukemia = tested on: K-562 leukemia
SF-268 CNS = tested on: SF-268 CNS
SNB-19 CNS = tested on: SNB-19 CNS
SW-620 colon = tested on: SW-620 colon
SK-MEL-28 melanoma = tested on: SK-MEL-28 melanoma
RPMI-8226 leukemia = tested on: RPMI-8226 leukemia
COLO 205 colon = tested on: COLO 205 colon
786-0 renal = tested on: 786-0 renal
A549 NSCLC = tested on: A549 NSCLC
NCI-H522 lung = tested on: NCI-H522 lung
NCI/ADR-RES ovarian = tested on: NCI/ADR-RES ovarian
OVCAR-3 ovarian = tested on: OVCAR-3 ovarian
OVCAR-5 ovarian = tested on: OVCAR-5 ovarian
OVCAR-8 ovarian = tested on: OVCAR-8 ovarian
HL-60(TB) leukemia = tested on: HL-60(TB) leukemia
MALME-3M melanoma = tested on: MALME-3M melanoma
HCC-2998 colon = tested on: HCC-2998 colon
BT-549 breast = tested on: BT-549 breast
IGROV1 ovarian = tested on: IGROV1 ovarian
M14 melanoma = tested on: M14 melanoma
NCI-H23 lung = tested on: NCI-H23 lung
U251 CNS = tested on: U251 CNS
HCT-15 colon = tested on: HCT-15 colon
PC-3 prostate = tested on: PC-3 prostate
UO-31 renal = tested on: UO-31 renal
HS 578T breast = tested on: HS 578T breast
MDA-MB-435 = tested on: MDA-MB-435
LOX IMVI melanoma = tested on: LOX IMVI melanoma
CCRF-CEM leukemia = tested on: CCRF-CEM leukemia
CAKI-1 renal = tested on: CAKI-1 renal
A498 renal = tested on: A498 renal
SF-539 CNS = tested on: SF-539 CNS
UACC-257 melanoma = tested on: UACC-257 melanoma
HCT-116 colon = tested on: HCT-116 colon
ACHN renal = tested on: ACHN renal
SK-MEL-2 melanoma = tested on: SK-MEL-2 melanoma
OVCAR-4 ovarian = tested on: OVCAR-4 ovarian
SK-OV-3 ovarian = tested on: SK-OV-3 ovarian
EKVX NSCLC = tested on: EKVX NSCLC
MOLT-4 leukemia = tested on: MOLT-4 leukemia
SNB-75 CNS = tested on: SNB-75 CNS
MDA-MB-468 breast = tested on: MDA-MB-468 breast
TK-10 renal = tested on: TK-10 renal
NCI-H460 lung = tested on: NCI-H460 lung
HT29 colon = tested on: HT29 colon
KM12 colon = tested on: KM12 colon
RXF 393 renal = tested on: RXF 393 renal

## O=C(Cc1ccc2c(c1)CN(C1CCC(=O)NC1=O)C2=O)NCCc1ccccc1 (stereo unspecified)
SR leukemia
  GI50: > 76500 nM
  TGI: > 100000 nM
SN12C renal
  GI50: 188 nM
  TGI: > 30900 nM
SK-MEL-5 melanoma
  GI50: 156 nM
  TGI: 991 nM
UACC-62 melanoma
  GI50: 2460 nM
  TGI: > 100000 nM
HOP-92 NSCLC
  GI50: 13.4 nM
  TGI: 146 nM
DU-145 prostate
  GI50: 20800 nM
  TGI: > 100000 nM
MDA-MB-231 breast
  GI50: < 10 nM
  TGI: 10.2 nM
NCI-H226 lung
  GI50: 68.5 nM
  TGI: 1410 nM
HOP-62 NSCLC
  GI50: 30.9 nM
  TGI: 1320 nM
T-47D breast
  GI50: 21.8 nM
  TGI: 414 nM
SF-295 CNS
  GI50: 530 nM
  TGI: > 100000 nM
MCF7 breast
  GI50: 200 nM
  TGI: > 100000 nM
K-562 leukemia
  GI50: 581 nM
  TGI: > 100000 nM
SF-268 CNS
  GI50: 510 nM
  TGI: > 100000 nM
SNB-19 CNS
  GI50: 76.7 nM
  TGI: > 28700 nM
SW-620 colon
  GI50: 39.1 nM
  TGI: > 100000 nM
SK-MEL-28 melanoma
  GI50: 589 nM
  TGI: > 100000 nM
RPMI-8226 leukemia
  GI50: 441 nM
  TGI: > 100000 nM
COLO 205 colon
  GI50: 43.8 nM
  TGI: 1280 nM
786-0 renal
  GI50: 124 nM
  TGI: > 100000 nM
A549 NSCLC
  GI50: 663 nM
  TGI: > 100000 nM
NCI-H522 lung
  GI50: > 20200 nM
  TGI: > 100000 nM
NCI/ADR-RES ovarian
  GI50: 5940 nM
  TGI: > 100000 nM
OVCAR-3 ovarian
  GI50: 2240 nM
  TGI: > 100000 nM
OVCAR-5 ovarian
  GI50: 145 nM
  TGI: 30500 nM
OVCAR-8 ovarian
  GI50: 32.3 nM
  TGI: > 21400 nM
HL-60(TB) leukemia
  GI50: < 10 nM
  TGI: 2190 nM
MALME-3M melanoma
  GI50: 13.5 nM
  TGI: 74.6 nM
HCC-2998 colon
  GI50: 45.1 nM
  TGI: 1320 nM
BT-549 breast
  GI50: 19.2 nM
  TGI: 75.5 nM
IGROV1 ovarian
  GI50: 33.6 nM
  TGI: 1080 nM
M14 melanoma
  GI50: 114 nM
  TGI: > 56400 nM
NCI-H23 lung
  GI50: > 60800 nM
  TGI: > 100000 nM
U251 CNS
  GI50: > 25100 nM
  TGI: > 100000 nM
HCT-15 colon
  GI50: 166 nM
  TGI: 4750 nM
PC-3 prostate
  GI50: 36.7 nM
  TGI: > 100000 nM
UO-31 renal
  GI50: 226 nM
  TGI: 6270 nM
HS 578T breast
  GI50: 38.5 nM
  TGI: 3100 nM
MDA-MB-435
  GI50: 551 nM
  TGI: > 100000 nM
LOX IMVI melanoma
  GI50: > 100000 nM
  TGI: > 100000 nM
CCRF-CEM leukemia
  GI50: < 10 nM
CAKI-1 renal
  GI50: 276 nM
  TGI: > 100000 nM
A498 renal
  GI50: 297 nM
  TGI: 7760 nM
SF-539 CNS
  GI50: 564 nM
  TGI: > 100000 nM
UACC-257 melanoma
  GI50: > 100000 nM
  TGI: > 100000 nM
HCT-116 colon
  GI50: 67900 nM
  TGI: > 100000 nM
ACHN renal
  GI50: 5320 nM
  TGI: > 100000 nM
SK-MEL-2 melanoma
  GI50: 225 nM
  TGI: 1820 nM
OVCAR-4 ovarian
  GI50: 436 nM
  TGI: > 70900 nM
SK-OV-3 ovarian
  GI50: 484 nM
  TGI: > 85700 nM
EKVX NSCLC
  TGI: > 100000 nM
MOLT-4 leukemia
  GI50: < 10 nM
  TGI: > 100000 nM
SNB-75 CNS
  GI50: 42 nM
  TGI: 2200 nM
MDA-MB-468 breast
  GI50: < 10 nM
  TGI: 16.8 nM
TK-10 renal
  GI50: 727 nM
  TGI: > 100000 nM
NCI-H460 lung
  GI50: > 100000 nM
  TGI: > 100000 nM
HT29 colon
  GI50: 530 nM
  TGI: > 100000 nM
KM12 colon
  GI50: 276 nM
  TGI: > 100000 nM
RXF 393 renal
  GI50: 402 nM
  TGI: > 24100 nM
